Test results from US11833185B2, “Anti-neurodegenerative therapeutic, method of manufacture, and use” (UNIVERSITY OF KENTUCKY RESEARCH FOUNDATION, priority 2017, dated 2023).
Where two headings read alike, the source gives them in different places. Where no end group is shown, it is not given here.

Columns and labels:
[1] = system: Parkinson's disease; details: person
Experimental: A person presents with current diagnosis of Parkinson's disease with motor complications and responsiveness to levodopa or dopa agonists. They are buccally administered 100 mg at every 12 hours for 180 days. At 1, 90, 180, 270 and 360 days they are tested/retested with a battery of neurological tests including Unified Parkinson's Disease Rating Scale (UPDRS), Time Tests, Hoehn and Yahr (HY) Scale, Clinical Global Impression of Severity (CGIS), Clinical Impression of Severity Index (CISI-PD), Patient Global Impression of Severity (PGIS).
A person presents with diagnosis of Parkinson's disease. They are administered peptide by intranasal spray at a dosage of 25 mg, daily for 60 days. At 1, 90, 180, 270 and 360 days they are tested/retested with a battery of neurological tests including Unified Parkinson's Disease Rating Scale (UPDRS), Time Tests, Hoehn and Yahr (HY) Scale, Clinical Global Impression of Severity (CGIS), Clinical Impression of Severity Index (CISI-PD), Patient Global Impression of Severity (PGIS).

[2] = system: Alzheimer's disease; details: person
[3] = system: striatum levels of DA, DOPAC, HVA, 5-HT, 5-HIAA, and NE; assay: Striatum neurochemistry (RP-HPLC EC) after repeated intranasal administration; format: in vivo, normal Fischer 344 rats; details: for Turnover ratio 5-HIAA/5-HT / Turnover ratio (HVA + DOPAC)/DA / Turnover ratio DOPAC/DA / Turnover ratio HVA/DA / 5-HT / 5 HIAA / DA / DOPAC / HVA / NE: 5 days a week for 3 weeks, combined left and right striatum, mean; for 5-HT / 5 HIAA / DA / DOPAC / HVA / NE: wet tissue weight
Experimental: (§1) Groups of 12, 3 month old Fischer 344 rats were intranasally dosed 50 microliters (4 single 12.5 microliter administrations, 2 per nare, 5 minutes between each nare administration) of either vehicle, 1.1 mg/mL, or 3.5 mg/mL of AV6403 [Leu-Ala-Pro-Ala-Glu-Asp-NH2] (SEQ ID NO: 1) once a day for 5 days a week, for 3 weeks (5 consecutive days of dosing, 2 off days, repeated total of 3 times). Following day 21, rats were euthanized and brain tissue was recovered and sections removed and weighed for neurochemical analysis by Reverse-Phase High Pressure Liquid Chromatography Electrochemical detection (RP-HPLC EC).
Dopamine [DA], its major metabolites 3,4-Dihydroxy-Phenylacetic Acid (DOPAC) and Homovanillic Acid (HVA), 5-hydroxytryptamine (5-HT, serotonin), its metabolite 5-hydroxyindoleacetic acid (5-HIAA), and norepinephrine (NE) were measured in the striatum and substantia nigra (SN) for each group. In the striatum [TABLE 1], 1.1 mg/mL dosing of AV6403 led to a 20% and 25% reduction of DA and HVA levels [FIG. 1A-FIG. 1C], respectively, resulting in an increase in dopamine turnover (22% [DOPAC/DA] and 16% [[(HVA+DOPAC)/DA]), relative to saline vehicle treated rats [FIG. 2A-FIG. 2B]. […] NE levels were reduced in the striatum with about a 36% reduction for AV6403 1.1 mg/mL dosage versus vehicle [TABLE 1].
as §1, with “1.2” for “1.1”, “3.6” for “3.5”, “AV7624 [Glu-Ala-Pro-Phe-Glu-Asp-NH2]” for “AV6403 [Leu-Ala-Pro-Ala-Glu-Asp-NH2] (SEQ ID NO: 1)”, “RP-HPLC EC.” for “Reverse-Phase High Pressure Liquid Chromatography Electrochemical detection (RP-HPLC EC).”
DA, DOPAC, HVA, 5-HT, 5-HIAA, and NE were measured in the striatum and SN for each group. In the striatum [TABLE 5], 3.6 mg/mL dosing of AV7624 led to an approximate 18%, 39%, and 30% reduction of DA, DOPAC, and HVA levels [FIG. 6A-FIG. 6C], respectively, resulting in an about 18% decrease in dopamine turnover ([DOPAC/DA] and [(HVA+DOPAC)/DA]), relative to saline vehicle treated rats [FIG. 7A-FIG. 7B]. […] NE levels were reduced in the striatum in a dose dependent manner, with about a 32% reduction for the AV7624 3.6 mg/mL dosage versus vehicle [TABLE 5]

[4] = system: substantia nigra levels of DA, DOPAC, HVA, 5-HT, 5-HIAA, and NE; assay: Substantia nigra neurochemistry (RP-HPLC EC) after repeated intranasal administration; format: in vivo, normal Fischer 344 rats; details: for Turnover ratio 5-HIAA/5-HT / Turnover ratio (HVA + DOPAC)/DA / Turnover ratio DOPAC/DA / Turnover ratio HVA/DA / 5-HIAA / 5-HT / DA / DOPAC / HVA / NE: 5 days a week for 3 weeks, combined left and right substantia nigra, mean; for 5-HIAA / 5-HT / DA / DOPAC / HVA / NE: wet tissue weight; for decrease of NE levels: versus vehicle treated rats
Experimental: as §1
In the SN [TABLE 3], treatment of AV6403 led to about a 13% increase in DOPAC and a 11% reduction of HVA, depending on the dosage, [FIG. 4A-FIG. 4C] resulting in an increase in dopamine turnover (20% [DOPAC/DA] for 3.5 mg/mL dosage; 23% [(HVA+DOPAC)/DA] for 1.1 mg/mL) relative to saline vehicle treated rats [FIG. 5A-FIG. 5B]. Treatment with 1.1 mg/mL AV6403 decreased 5-HT by 10% in the SN, resulting in a 16% increase in serotonin turnover [5-HIAA/5-HT] [TABLE 4]. The higher dosage (3.5 mg/mL AV6403) increased NE levels in the SN by about 23% versus vehicle treated rats, respectively [TABLE 3].
as §1, with “1.2” for “1.1”, “3.6” for “3.5”, “AV7624 [Glu-Ala-Pro-Phe-Glu-Asp-NH2]” for “AV6403 [Leu-Ala-Pro-Ala-Glu-Asp-NH2] (SEQ ID NO: 1)”, “RP-HPLC EC.” for “Reverse-Phase High Pressure Liquid Chromatography Electrochemical detection (RP-HPLC EC).”
In the SN [TABLE 7], treatment with 3.6 mg/mL AV7624 led to about a 23%, 22%, and a 6% decrease in DA, DOPAC, and HVA [FIG. 9A-FIG. 9C], relative to saline vehicle treated rats, with minor effects on dopamine turnover [FIG. 10A-FIG. 10B]. Treatment with 3.6 mg/mL AV7624 decreased 5-HT by 20% and 5-HIAA by about 18% in the SN [TABLE 7], resulting in a minor effect on serotonin turnover [TABLE 8]. NE levels in the SN were decreased (17% and 13%) by both dosages (1.2 mg/mL and 3.6 mg/mL) versus vehicle treated rats, respectively [TABLE 7].

[5] = 3.6 mg/mL intranasal, striatum, relative to saline vehicle treated rats
[6] = 3.6 mg/mL repeated intranasal, striatum
[7] = 3.6 mg/mL intranasal, SN, relative to saline vehicle treated rats

## Cyclo (cys-Leucine-Glycine-Proline-Phenylalanine-Serine-Glutamate-cys [SEQ ID NO: 5]
[1]; buccal 100 mg every 12 hours for 180 days
  additional test loss from day 1 over 360 days: minimal to no additional test loss

## D-Glutamate-Alanine-Proline-Phenylalanine-D-Alanine-Glycine-NH2 [SEQ ID NO: 7]
[2]; Alzheimer's Disease, buccal 25 mg daily for 60 days
  cognitive loss from day 1 over 360 days: minimal to no cognitive loss

## Glu-Ala-Pro-Phe-Glu-Asp-NH2 (EAPFED-NH2) [AV7624]
[3]; 1.2 mg/mL intranasal
  Turnover ratio 5-HIAA/5-HT: 1.15
  Turnover ratio (HVA + DOPAC)/DA: 0.38
  Turnover ratio DOPAC/DA: 0.28
  Turnover ratio HVA/DA: 0.09
  5-HT: 610 ng/g
  5 HIAA: 674 ng/g
  DA: 13521 ng/g
  DOPAC: 3906 ng/g
  HVA: 1253 ng/g
  NE: 83 ng/g
[3]; 3.6 mg/mL intranasal
  Turnover ratio 5-HIAA/5-HT: 1.05
  Turnover ratio (HVA + DOPAC)/DA: 0.33
  Turnover ratio DOPAC/DA: 0.24
  Turnover ratio HVA/DA: 0.09
  5-HT: 487 ng/g
  5 HIAA: 499 ng/g
  DA: 10762 ng/g
  DOPAC: 2478 ng/g
  HVA: 915 ng/g
  NE: 67 ng/g
[3]; [5]
  decrease in dopamine turnover ([DOPAC/DA] and [(HVA+DOPAC)/DA]): about 18%
  reduction of DA levels: about 18%
  reduction of DOPAC levels: ~39%
  reduction of HVA levels: ~30%
[3]; 3.6 mg/mL intranasal, striatum, versus vehicle
  reduction of NE levels: ~32%
[3]; [6]
  effect on turnover [5-HIAA/5-HT]: small effect
  reduction of 5-HIAA levels: ~30%
  reduction of 5-HT levels: ~28%
[3]; lower dosage (1.2 mg/mL) intranasal, striatum
  effects on DA, 5-HT and their metabolites: less robust effects
[4]; 1.2 mg/mL intranasal
  Turnover ratio 5-HIAA/5-HT: 0.58
  Turnover ratio (HVA + DOPAC)/DA: 0.34
  Turnover ratio DOPAC/DA: 0.24
  Turnover ratio HVA/DA: 0.10
  5-HIAA: 886 ng/g
  5-HT: 1546 ng/g
  DA: 1918 ng/g
  DOPAC: 472 ng/g
  HVA: 184 ng/g
  NE: 727 ng/g
[4]; 1.2 mg/mL intranasal, SN
  decrease of NE levels: 17%
[4]; 3.6 mg/mL intranasal
  Turnover ratio 5-HIAA/5-HT: 0.57
  Turnover ratio (HVA + DOPAC)/DA: 0.35
  Turnover ratio DOPAC/DA: 0.22
  Turnover ratio HVA/DA: 0.13
  5-HIAA: 737 ng/g
  5-HT: 1251 ng/g
  DA: 1523 ng/g
  DOPAC: 376 ng/g
  HVA: 177 ng/g
  NE: 767 ng/g
[4]; 3.6 mg/mL intranasal, SN
  decrease of 5-HIAA: about 18%
  decrease of 5-HT: 20%
  effect on serotonin turnover: minor effect
  effects on dopamine turnover: minor effects
  decrease of NE levels: 13%
[4]; [7]
  decrease in DA: ~23%
  decrease in DOPAC: ~22%
  decrease in HVA: ~6%

## Glutamate-deuterated Lysine-Proline-D-Phenylalanine-deuterated Leucine-NH2 [SEQ ID NO: 8]
[1]; intranasal spray 25 mg daily for 60 days
  additional UPDRS loss from day 1 over 360 days: minimal to no additional UPDRS loss

## Leucine-Glycine-Proline-Phenylalanine-Serine-Glutamate
[2]; mild cognitive impairment Alzheimer's disease, intranasal 5 mg once per day for 360 days
  cognitive loss from day 1 over 360 days: minimal to no cognitive loss

## Tryptophan-D-Alanine-Proline-D-Lysine-Asparagine-NH2 [SEQ ID NO: 6]
[2]; Alzheimer's disease, intranasal 100 mg once a week for 30 days
  cognitive loss from day 1 over 360 days: minimal to no cognitive loss
